System: IL-1β release upon NLRP3 activation in peripheral blood mononuclear cells (PBMC)
Test: PBMC IC50 determination assay: inhibition of IL-1β release upon NLRP3 activation
Type: cell-based
Details: PBMC, PBMC primed with LPS 3 h, compound 30 min, stimulated with ATP (5 mM) or nigericin (10 μM) 1 h; IL-1β by ELISA (Protocol A) or HTRF (Protocol B)
In short: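 Human PBMC from buffy coats were primed 3 h with LPS (1 μg/mL in Protocol B), given compound for 30 min, then stimulated 1 h with ATP (5 mM) or nigericin (10 μM; Protocol A only). Released IL-1β was quantified by ELISA at 450 nm (Protocol A) or HTRF at […] (Protocol B).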

SMILES | IC50
CC(C)c1nn(CC(=O)Nc2ccc3nncn3n2)c(=O)c2cc(C3CC3)oc12 [Compound 105, 2-[2-Cyclopropyl-4-oxo-7-(propan-2-yl)-4H,5H-furo[2,3-d]pyridazin-5-yl]-N-{[1,2,4]triazolo[4,3-b]pyridazin-6-yl}acetamide] | 100 to 1000 nM
Cc1nn(CC(=O)Nc2ccc3nncn3n2)c(=O)c2cc(C3CC3)oc12 [Compound 106, 2-{2-Cyclopropyl-7-methyl-4-oxo-4H,5H-furo[2,3-d]pyridazin-5-yl}-N-{[1,2,4]triazolo[4,3-b]pyridazin-6-yl}acetamide] | 100 to 1000 nM
CCOc1cc2c(C(C)C)nn(CC(=O)Nc3ncccn3)c(=O)c2s1 [Compound 107, 2-[2-Ethoxy-7-oxo-4-(propan-2-yl)-6H,7H-thieno[2,3-d]pyridazin-6-yl]-N-(pyrimidin-2-yl)acetamide] | 1000 to 3000 nM
COc1cc2c(=O)n(CC(=O)Nc3ncccn3)nc(C(C)C)c2o1 [Compound 108, 2-[2-Methoxy-4-oxo-7-(propan-2-yl)-4H,5H-furo[2,3-d]pyridazin-5-yl]-N-(pyrimidin-2-yl)acetamide] | 3000 to 10000 nM
[2H]C([2H])([2H])Nc1cc2c(C(C)C)nn(CC(=O)Nc3ncccn3)c(=O)c2s1 [Compound 109, 2-{2-Trideuteromethylamino-7-oxo-4-(propan-2-yl)-6H,7H-thieno[2,3-d]pyridazin-6-yl}-N-(pyrimidin-2-yl)acetamide] | ≤ 100 nM
CCNc1cc2c(C(C)C)nn(C3(C(=O)Nc4ncccn4)CC3)c(=O)c2s1 [Compound 110, 1-[2-(Ethylamino)-7-oxo-4-(propan-2-yl)-6H,7H-thieno[2,3-d]pyridazin-6-yl]-N-(pyrimidin-2-yl)cyclopropane-1-carboxamide] | 3000 to 10000 nM
CNc1cc2c(=O)n(CC(=O)Nc3ncccn3)nc(C(C)C)c2o1 [Compound 111, 2-[2-(Methylamino)-4-oxo-7-(propan-2-yl)-4H,5H-furo[2,3-d]pyridazin-5-yl]-N-(pyrimidin-2-yl)acetamide] | 100 to 1000 nM
CNc1cc2c(C3CC3)nn(CC(=O)Nc3ncccn3)c(=O)c2s1 [Compound 112, 2-[4-Cyclopropyl-2-(methylamino)-7-oxo-6H,7H-thieno[2,3-d]pyridazin-6-yl]-N-(pyrimidin-2-yl)acetamide] | 100 to 1000 nM
CNc1cc2c(C(C)C)nn(C3(C(=O)Nc4ncccn4)CC3)c(=O)c2s1 [Compound 113, 1-[2-(Methylamino)-7-oxo-4-(propan-2-yl)-6H,7H-thieno[2,3-d]pyridazin-6-yl]-N-(pyrimidin-2-yl)cyclopropane-1-carboxamide] | 10000 to 50000 nM
CCc1nn(CC(=O)Nc2ncccn2)c(=O)c2sc(NC)cc12 [Compound 114, 2-[4-ethyl-2-(methylamino)-7-oxo-6H,7H-thieno[2,3-d]pyridazin-6-yl]-N-(pyrimidin-2-yl)acetamide] | 100 to 1000 nM
CCc1nn(CC(=O)Nc2ncco2)c(=O)c2sc(NC)cc12 [Compound 115, 2-[4-Ethyl-2-(methylamino)-7-oxo-6H,7H-thieno[2,3-d]pyridazin-6-yl]-N-(1,3-oxazol-2-yl)acetamide] | 100 to 1000 nM
CCc1nn(CC(=O)Nc2ncccn2)c(=O)c2sc(C)cc12 [Compound 116] | 1000 to 3000 nM
Cc1cc2c(C)nn(CC(=O)Nc3ncccn3)c(=O)c2s1 [Compound 117, 2-{2,4-Dimethyl-7-oxo-6H,7H-thieno[2,3-d]pyridazin-6-yl}-N-(pyrimidin-2-yl)acetamide] | 1000 to 3000 nM
CNc1cc2c(C)nn(CC(=O)Nc3ncccn3)c(=O)c2s1 [Compound 118, 2-[4-methyl-2-(methylamino)-7-oxo-6H,7H-thieno[2,3-d]pyridazin-6-yl]-N-(pyrimidin-2-yl)acetamide] | 1000 to 3000 nM
CNc1cc2c(C)nn(CC(=O)Nc3ncco3)c(=O)c2s1 [Compound 119, 2-[4-Methyl-2-(methylamino)-7-oxo-6H,7H-thieno[2,3-d]pyridazin-6-yl]-N-(1,3-oxazol-2-yl)acetamide] | 1000 to 3000 nM
CC(C)c1nn(CC(=O)Nc2ncccn2)c(=O)c2sc(CN)cc12 [Compound 120, 2-[2-(Aminomethyl)-7-oxo-4-(propan-2-yl)-6H,7H-thieno[2,3-d]pyridazin-6-yl]-N-(pyrimidin-2-yl)acetamide] | 10000 to 50000 nM
